Reference: patent US6380198B1 (Laboratoire Medidom S.A., priority 1997, dated 2002)
Values joined by “and” are separate entries in the source; they are usually repeats but may differ in a detail not shown here. Identical values can stand only once.

Assays:
[1] = target: T1, σ-1 receptors (Oryctolagus cuniculus, UniProt G1SD54); test: Inhibition of 3H(+)-N-allyl-nor-methazocine binding to irido-ciliary body membranes; parameters: species or system rabbit (New Zealand albino); conditions: rabbit irido-ciliary body P2 membranes, 300 μg protein, 37° C., 150 minutes, duplicate
T1 construct: cell membranes obtained from the irido-ciliary body complex; from tissue; host or cells: rabbit irido-ciliary body, P2 membrane fraction
Experimental: The receptor binding technique was carried out on cell membranes obtained from the irido-ciliary body complex explanted, after sacrifice, from male albino rabbits of the New Zealand strain (Charles River Italiana, of Calco (CO)). The tissue was homogenised in buffer and the P2, fraction, rich in cell membrane proteins, was isolated. […] The La total protein concentration was determined with the Lowry method.
The non specific binding was evaluated in presence of haloperidol.
All tests were carried out in duplicate. The reaction was maintained at 37° C. for 150 minutes, followed by filtration on WhatmannGF/B filters. The radioactivity left on the filters was measured by liquid scintillation spectrometry.

[2] = tested on: intraocular pressure; conditions: Payene et al. 1990; cited from earlier work
[3] = tested on: intraocular pressure of rabbits with ocular hypertension; test: Intraocular pressure in rabbits with ocular hypertension induced by α-chymotrypsin; format: in vivo, rabbit (Vienna Blue, pigmented); conditions: for Intraocular pressure (mmHg) at the time (min): 30, average ± S.D. / Intraocular pressure (mmHg) at the time (min): 60, average ± S.D. / Intraocular pressure (mmHg) at the time (min): 90, average ± S.D. / Intraocular pressure (mmHg) at the time (min): 120, average ± S.D. / Intraocular pressure (mmHg) at the time (min): 180, average ± S.D. / Intraocular pressure (mmHg) at the time (min): 240, average ± S.D. / Intraocular pressure (mmHg) at the time (min): 0, average ± S.D. / Intraocular pressure (mmHg) at the time (min): 30 / Intraocular pressure (mmHg) at the time (min): 60 / Intraocular pressure (mmHg) at the time (min): 90 / Intraocular pressure (mmHg) at the time (min): 120 / Intraocular pressure (mmHg) at the time (min): 180 / Intraocular pressure (mmHg) at the time (min): 240 / Intraocular pressure (mmHg) at the time (min): 0: Table 3, hypertensive rabbits, 50 μl eye-drops: 0.050% flunarizine, 0.056% verapamil, 0.051% diltiazem, 0.043% nifedipine; for Intraocular pressure (mmHg) at the time (min): 30, average ± S.D. / Intraocular pressure (mmHg) at the time (min): 60, average ± S.D. / Intraocular pressure (mmHg) at the time (min): 90, average ± S.D. / Intraocular pressure (mmHg) at the time (min): 120, average ± S.D. / Intraocular pressure (mmHg) at the time (min): 180, average ± S.D. / Intraocular pressure (mmHg) at the time (min): 240, average ± S.D. / Intraocular pressure (mmHg) at the time (min): 0, average ± S.D.: average ± S.D. of 4 rabbits; for Intraocular pressure (mmHg) at the time (min): 30, average ± S.D. / Intraocular pressure (mmHg) at the time (min): 30: 30 min after instillation; for Intraocular pressure (mmHg) at the time (min): 60, average ± S.D. / Intraocular pressure (mmHg) at the time (min): 60: 60 min after instillation; for Intraocular pressure (mmHg) at the time (min): 90, average ± S.D. / Intraocular pressure (mmHg) at the time (min): 90: 90 min after instillation; for Intraocular pressure (mmHg) at the time (min): 120, average ± S.D. / Intraocular pressure (mmHg) at the time (min): 120: 120 min after instillation; for Intraocular pressure (mmHg) at the time (min): 180, average ± S.D. / Intraocular pressure (mmHg) at the time (min): 180: 180 min after instillation; for Intraocular pressure (mmHg) at the time (min): 240, average ± S.D. / Intraocular pressure (mmHg) at the time (min): 240: 240 min after instillation; for Intraocular pressure (mmHg) at the time (min): 0, average ± S.D. / Intraocular pressure (mmHg) at the time (min): 0: time 0 = 15 min before instillation (baseline); for Intraocular pressure (mmHg) at the time (min): 30 / Intraocular pressure (mmHg) at the time (min): 60 / Intraocular pressure (mmHg) at the time (min): 90 / Intraocular pressure (mmHg) at the time (min): 120 / Intraocular pressure (mmHg) at the time (min): 180 / Intraocular pressure (mmHg) at the time (min): 240 / Intraocular pressure (mmHg) at the time (min): 0: individual rabbit, right eye
Experimental: Rabbits of the same type as those described in the previous section were used for the following tests.
In the rabbit, the injection of this enzyme in the posterior chamber causes, after one month from the administration, an effect of ocular hypertension.
At the end of the quarantine period the rabbits were anaesthetised by intramuscular administration of ketamine hydrochloride and xylazine hydrochloride (RBI). The right eye was gently pushed outwardly after instilling 25 μl of Novesine® eye-drops, containing oxybuprocaine as an anaesthetic; then, a sterile solution of σ-chymotrypsin (SIGMA, Milan; 150 units in 100 μl of physiologic sterile solution) was injected in the posterior chamber of the right eye by means of a 30G sterile needle. After the administration of the enzyme, the eye was thoroughly washed with physiologic sterile solution in order to remove any traces of α-chymotrypsin which could damage the ocular tissues. Then, 2 drops of a commercial ophthalmic antibiotic solution (Colbiocin®, SIFI S.p.A., containing chloramphenicol, rolitetracycline, colistin methanesulphonate) were instilled. The treatment was carried out 3 times a day (at 8.00 a.m., 12.00 a.m. and 6.00 p.m.) for one week after the administration of α-chymotrypsin. The rabbits were employed in the tests after one month from the induction of ocular hypertension by means of the enzyme.
The rabbits, divided also in this case in groups of 4 animals, were treated by instillation of 50 μl of the product under test in the right conjunctival fornix.
The intraocular pressure in the treated eye was measured, according to the same procedure as in the previous tests, 15 minutes before the instillation of the eye-drops and 30, 60, 90, 120, 180 and 240 minutes after. The values obtained were statistically analysed according to the criteria mentioned in the foregoing.
The experimental conditions were exactly the same as before.

[4] = tested on: intraocular pressure of rabbits showing normal baseline intraocular pressure; test: Intraocular pressure in rabbits with normal intraocular pressure after topical instillation; format: in vivo, rabbit (Vienna Blue, pigmented); conditions: for Intraocular pressure (mmHg) at the time (min): 30, average ± S.D. / Intraocular pressure (mmHg) at the time (min): 60, average ± S.D. / Intraocular pressure (mmHg) at the time (min): 90, average ± S.D. / Intraocular pressure (mmHg) at the time (min): 120, average ± S.D. / Intraocular pressure (mmHg) at the time (min): 180, average ± S.D. / Intraocular pressure (mmHg) at the time (min): 240, average ± S.D. / Intraocular pressure (mmHg) at the time (min): 0, average ± S.D. / Intraocular pressure (mmHg) at the time (min): 30 / Intraocular pressure (mmHg) at the time (min): 60 / Intraocular pressure (mmHg) at the time (min): 90 / Intraocular pressure (mmHg) at the time (min): 120 / Intraocular pressure (mmHg) at the time (min): 180 / Intraocular pressure (mmHg) at the time (min): 240 / Intraocular pressure (mmHg) at the time (min): 0: Table 1, 50 μl eye-drops: 0.050% flunarizine, 0.056% verapamil, 0.051% diltiazem, 0.043% nifedipine; for Intraocular pressure (mmHg) at the time (min): 30, average ± S.D. / Intraocular pressure (mmHg) at the time (min): 60, average ± S.D. / Intraocular pressure (mmHg) at the time (min): 90, average ± S.D. / Intraocular pressure (mmHg) at the time (min): 120, average ± S.D. / Intraocular pressure (mmHg) at the time (min): 180, average ± S.D. / Intraocular pressure (mmHg) at the time (min): 240, average ± S.D. / Intraocular pressure (mmHg) at the time (min): 0, average ± S.D.: average ± S.D. of 4 rabbits; for Intraocular pressure (mmHg) at the time (min): 30, average ± S.D. / Intraocular pressure (mmHg) at the time (min): 30: 30 min after instillation; for Intraocular pressure (mmHg) at the time (min): 60, average ± S.D. / Intraocular pressure (mmHg) at the time (min): 60: 60 min after instillation; for Intraocular pressure (mmHg) at the time (min): 90, average ± S.D. / Intraocular pressure (mmHg) at the time (min): 90: 90 min after instillation; for Intraocular pressure (mmHg) at the time (min): 120, average ± S.D. / Intraocular pressure (mmHg) at the time (min): 120: 120 min after instillation; for Intraocular pressure (mmHg) at the time (min): 180, average ± S.D. / Intraocular pressure (mmHg) at the time (min): 180: 180 min after instillation; for Intraocular pressure (mmHg) at the time (min): 240, average ± S.D. / Intraocular pressure (mmHg) at the time (min): 240: 240 min after instillation; for Intraocular pressure (mmHg) at the time (min): 0, average ± S.D. / Intraocular pressure (mmHg) at the time (min): 0: time 0 = 15 min before instillation (baseline); for Intraocular pressure (mmHg) at the time (min): 30 / Intraocular pressure (mmHg) at the time (min): 60 / Intraocular pressure (mmHg) at the time (min): 90 / Intraocular pressure (mmHg) at the time (min): 120 / Intraocular pressure (mmHg) at the time (min): 180 / Intraocular pressure (mmHg) at the time (min): 240 / Intraocular pressure (mmHg) at the time (min): 0: individual rabbit, right eye
Experimental: The effects of the agent of the invention on the intraocular pressure of rabbits showing normal baseline intraocular pressure were evaluated in comparison with the action of a placebo, and with that of various other calcium channel blocking agents. Female pigmented rabbits of the Vienna Blue strain were used (supplied by Charles River Italiana, of Calco (CO)). The age of the animals at the time of starting the experimentation was 9 weeks, and their weight was 2.0-2.5 kg.
The choice of a species with pigmented iris is due to the fact that the latter represents a reliable model for the evaluation of possible modifications of the intraocular pressure caused by the products under test. The strain chosen is genetically defined, so as to limit to a minimum the variability of the biological characteristics between one animal and the other.
The animals were kept in rooms maintained under constant and controlled conditions of temperature and humidity, illuminated for 12 hours a day with artificial light and with continuous renovation of the air. The feed consisted of a standard diet having a constant and known composition, and both feed and water were available ad libitum during the whole period of the test. The rabbits were stabled for 21 days before starting the test, so as to allow a sufficient acclimatation and to suitably evaluate the health conditions of the rabbits. Each experimental group consisted of 4 animals, which were allotted to the treatment groups in a randomised way.
Each different group of animals received, by instillation in the right conjunctival fornix, 50 μl of the following products:
The weight concentrations of the various agents under test are chosen so as to correspond to the same molar concentration.
The pressure in the treated eye was measured by flattening tonometer (TonopenXL®, Mentor), 15 minutes before the instillation of the eyerops (time 0) and then 30, 60, 90, 120, 180 and 240 minutes after. As a local anaesthetic, 5 minutes before carrying out each measurement 25 μl of a commercial ophthalmic solution containing 0.4% oxybuprocaine hydrochloride (Novesine®, Sandoz) was instilled. To carry out the measurement the rabbits were placed in a suitably designed cage, that prevents any sudden movement of the animal under test.
For each animal and at each of the times listed above the average of three subsequent measurements was calculated and recorded, each one said measurements being made after 1 minute from the previous one. The intraocular pressure values at the various times were compared with the values obtained before the treatment, by means of the Student's “t” test. The comparisons between different groups were made by processing the data by the variance analysis (ANOVA) and, where possible, by the Student's “t” test for the comparison of two different experimental groups. Values of p<0.05 were considered to be statistically significant.

[5] = tested on: cornea (corneal thickness); conditions: rabbit, in vivo
Experimental: The evaluation of the thickness of the cornea was carried out ecographically by means of a UBM System 840 (Humphrey Instruments, San Leandro, Calif., USA). […] The software incorporated allows to modify the focalisation depth of the ultrasound beam, and to capture the image while varying its amplification.
The animals employed in this test were of the same type as those described in the foregoing, and were treated in the same way. The test was carried out, after having anaesthetised the animal (with ketamine hydrochloride and xylazine hydrochloride), by placing into contact with the eyeball tiny cups filled in with a coupling means (ultrasound gel).

[6] = 50 μl eye-drops, 0.050% flunarizine, equimolar comparators, 0.5% timolol

T1 sequence (G1SD54 1-223): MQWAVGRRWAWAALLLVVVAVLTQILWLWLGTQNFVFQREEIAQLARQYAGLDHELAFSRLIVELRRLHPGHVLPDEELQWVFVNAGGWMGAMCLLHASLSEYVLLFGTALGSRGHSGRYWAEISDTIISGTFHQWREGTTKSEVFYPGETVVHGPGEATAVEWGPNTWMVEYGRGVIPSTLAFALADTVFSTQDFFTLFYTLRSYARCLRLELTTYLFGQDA

Row | SMILES | IC50 [1] [µM] | Intraocular pressure (mmHg) at the time (min): 30, average ± S.D. [3] [mmHg] | Intraocular pressure (mmHg) at the time (min): 60, average ± S.D. [3] [mmHg] | Intraocular pressure (mmHg) at the time (min): 90, average ± S.D. [3] [mmHg] | Intraocular pressure (mmHg) at the time (min): 120, average ± S.D. [3] [mmHg] | Intraocular pressure (mmHg) at the time (min): 180, average ± S.D. [3] [mmHg] | Intraocular pressure (mmHg) at the time (min): 240, average ± S.D. [3] [mmHg] | Intraocular pressure (mmHg) at the time (min): 0, average ± S.D. [3] [mmHg] | Intraocular pressure (mmHg) at the time (min): 30 [3] | Intraocular pressure (mmHg) at the time (min): 60 [3] | Intraocular pressure (mmHg) at the time (min): 90 [3] | Intraocular pressure (mmHg) at the time (min): 120 [3] | Intraocular pressure (mmHg) at the time (min): 180 [3] | Intraocular pressure (mmHg) at the time (min): 240 [3] | Intraocular pressure (mmHg) at the time (min): 0 [3] | Intraocular pressure (mmHg) at the time (min): 30, average ± S.D. [4] [mmHg] | Intraocular pressure (mmHg) at the time (min): 60, average ± S.D. [4] [mmHg] | Intraocular pressure (mmHg) at the time (min): 90, average ± S.D. [4] [mmHg] | Intraocular pressure (mmHg) at the time (min): 120, average ± S.D. [4] [mmHg] | Intraocular pressure (mmHg) at the time (min): 180, average ± S.D. [4] [mmHg] | other results
1 | COc1ccc([C@@H]2Sc3ccccc3N(CCN(C)C)C(=O)[C@@H]2OC(C)=O)cc1 [diltiazem] | > 10 | 49.5 ± 5.80 | 47.5 ± 5.80 | 48.2 ± 5.90 | 49.5 ± 5.68 | 49.0 ± 5.71 | 48.7 ± 6.13 | 49.0 ± 5.71 | 55 mmHg and 53 mmHg and 48 mmHg and 42 mmHg | 53 mmHg and 51 mmHg and 46 mmHg and 40 mmHg | 54 mmHg and 52 mmHg and 46 mmHg and 41 mmHg | 56 mmHg and 52 mmHg and 47 mmHg and 43 mmHg | 56 mmHg and 51 mmHg and 48 mmHg and 43 mmHg | 55 mmHg and 52 mmHg and 47 mmHg and 41 mmHg | 55 mmHg and 52 mmHg and 47 mmHg and 42 mmHg | 15.2 ± 1.2 | 14.7 ± 0.9 | 14.7 ± 0.9 | 15 ± 0.5 | 16.2 ± 0.95 | Intraocular pressure after topical administration to rabbits [2]: did not detect any significant effect; Effect on intraocular pressure in rabbits with ocular hypertension, in words [3, 6]: do not show any significant reduction; Effect on intraocular pressure in rabbits with normal pressure, in words [4, 6]: neither the verapamil formulation nor the diltiazem formulation, both using the same vehicle as MEG 01, did produce any intraocular pressure decrease; Intraocular pressure (mmHg) at the time (min): 240, average ± S.D. [4]: 16 ± 0.6 mmHg; Intraocular pressure (mmHg) at the time (min): 0, average ± S.D. [4]: 16.7 ± 1.5 mmHg; Intraocular pressure (mmHg) at the time (min): 30 [4]: 14 mmHg and 15 mmHg (2×) and 17 mmHg; Intraocular pressure (mmHg) at the time (min): 60 [4]: 14 mmHg (2×) and 17 mmHg and 13 mmHg; Intraocular pressure (mmHg) at the time (min): 90 [4]: 14 mmHg (2×) and 16 mmHg and 15 mmHg; Intraocular pressure (mmHg) at the time (min): 120 [4]: 15 mmHg (2×) and 16 mmHg (2×); Intraocular pressure (mmHg) at the time (min): 180 [4]: 15 mmHg and 16 mmHg and 17 mmHg (2×); Intraocular pressure (mmHg) at the time (min): 240 [4]: 16 mmHg (2×) and 17 mmHg (2×); Intraocular pressure (mmHg) at the time (min): 0 [4]: 15 mmHg and 16 mmHg and 18 mmHg (2×)
2 | COC(=O)C1=C(C)NC(C)=C(C(=O)OC)C1c1ccccc1[N+](=O)[O-] [nifedipine] | > 10 | 47.7 ± 7.18 | 46.75 ± 6.13 | 46.5 ± 6.19 | 47.0 ± 5.47 | 48.00 ± 4.98 | 48.00 ± 4.96 | 48.0 ± 5.47 | 55 mmHg and 52 mmHg and 45 mmHg and 39 mmHg | 53 mmHg and 50 mmHg and 45 mmHg and 39 mmHg | 52 mmHg and 50 mmHg and 46 mmHg and 38 mmHg | 53 mmHg and 49 mmHg and 46 mmHg and 40 mmHg | 54 mmHg and 48 mmHg and 45 mmHg and 41 mmHg | 54 mmHg and 49 mmHg and 47 mmHg and 42 mmHg | 54 mmHg and 50 mmHg and 47 mmHg and 41 mmHg | 14.7 ± 1.2 | 13.7 ± 0.9 | 15.5 ± 0.6 | 16.0 ± 1.5 | 16.5 ± 1.7 | Corneal swelling / alteration of corneal thickness, in words [5]: No significant effect; Intraocular pressure (mmHg) at the time (min): 240, average ± S.D. [4]: 16 ± 0 mmHg; Intraocular pressure (mmHg) at the time (min): 0, average ± S.D. [4]: 15.7 ± 1.7 mmHg; Intraocular pressure (mmHg) at the time (min): 30 [4]: 15 mmHg (2×) and 13 mmHg and 16 mmHg; Intraocular pressure (mmHg) at the time (min): 60 [4]: 14 mmHg and 13 mmHg (2×) and 15 mmHg; Intraocular pressure (mmHg) at the time (min): 90 [4]: 16 mmHg (2×) and 15 mmHg (2×); Intraocular pressure (mmHg) at the time (min): 120 [4]: 16 mmHg; Intraocular pressure (mmHg) at the time (min): 180 [4]: 17 mmHg (2×) and 15 mmHg (2×); Intraocular pressure (mmHg) at the time (min): 240 [4]: 17 mmHg (2×) and 14 mmHg and 18 mmHg; Intraocular pressure (mmHg) at the time (min): 0 [4]: 16 mmHg and 15 mmHg and 14 mmHg and 18 mmHg
